Measurements reported in ChEMBL document CHEMBL4014275, “Discovery of benzofuran-3(2H)-one derivatives as novel DRAK2 inhibitors that protect islet β-cells from apoptosis” (Eur J Med Chem, 2017).

Key:
[1] = target: T1, Serine/threonine-protein kinase 17B (Homo sapiens, UniProt O94768); assay: Inhibition of DRAK2 (unknown origin)
T1 sequence (O94768 whole entry): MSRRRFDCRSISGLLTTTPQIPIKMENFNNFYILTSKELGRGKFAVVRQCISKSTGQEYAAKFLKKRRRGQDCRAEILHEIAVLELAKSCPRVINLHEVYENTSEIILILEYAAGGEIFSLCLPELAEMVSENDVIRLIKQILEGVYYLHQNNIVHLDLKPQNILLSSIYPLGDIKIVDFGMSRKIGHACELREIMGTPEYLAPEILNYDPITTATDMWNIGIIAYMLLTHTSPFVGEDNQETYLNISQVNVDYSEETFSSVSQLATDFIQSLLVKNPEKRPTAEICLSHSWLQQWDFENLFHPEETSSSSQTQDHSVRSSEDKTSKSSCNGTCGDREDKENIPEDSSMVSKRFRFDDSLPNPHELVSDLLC

[2] = target: T2, Serine/threonine-protein kinase 17A (Homo sapiens, UniProt Q9UEE5); assay: Binding affinity to DRAK1 (unknown origin)
T2 sequence (Q9UEE5 whole entry): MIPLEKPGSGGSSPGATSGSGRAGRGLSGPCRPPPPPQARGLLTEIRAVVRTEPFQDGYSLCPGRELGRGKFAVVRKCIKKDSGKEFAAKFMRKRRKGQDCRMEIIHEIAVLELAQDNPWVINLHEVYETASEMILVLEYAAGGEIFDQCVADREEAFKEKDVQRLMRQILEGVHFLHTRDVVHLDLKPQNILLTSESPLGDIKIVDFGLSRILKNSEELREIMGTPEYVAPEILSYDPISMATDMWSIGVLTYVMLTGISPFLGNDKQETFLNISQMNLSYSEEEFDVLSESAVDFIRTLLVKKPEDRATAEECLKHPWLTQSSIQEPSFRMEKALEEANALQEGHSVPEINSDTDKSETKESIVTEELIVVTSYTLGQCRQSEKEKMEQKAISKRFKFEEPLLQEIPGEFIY

[3] = target: Death-associated protein kinase 1 (Homo sapiens, UniProt P53355); assay: Binding affinity to DAPK1 (unknown origin)
Chain of Death-associated protein kinase 1 (P53355 whole entry): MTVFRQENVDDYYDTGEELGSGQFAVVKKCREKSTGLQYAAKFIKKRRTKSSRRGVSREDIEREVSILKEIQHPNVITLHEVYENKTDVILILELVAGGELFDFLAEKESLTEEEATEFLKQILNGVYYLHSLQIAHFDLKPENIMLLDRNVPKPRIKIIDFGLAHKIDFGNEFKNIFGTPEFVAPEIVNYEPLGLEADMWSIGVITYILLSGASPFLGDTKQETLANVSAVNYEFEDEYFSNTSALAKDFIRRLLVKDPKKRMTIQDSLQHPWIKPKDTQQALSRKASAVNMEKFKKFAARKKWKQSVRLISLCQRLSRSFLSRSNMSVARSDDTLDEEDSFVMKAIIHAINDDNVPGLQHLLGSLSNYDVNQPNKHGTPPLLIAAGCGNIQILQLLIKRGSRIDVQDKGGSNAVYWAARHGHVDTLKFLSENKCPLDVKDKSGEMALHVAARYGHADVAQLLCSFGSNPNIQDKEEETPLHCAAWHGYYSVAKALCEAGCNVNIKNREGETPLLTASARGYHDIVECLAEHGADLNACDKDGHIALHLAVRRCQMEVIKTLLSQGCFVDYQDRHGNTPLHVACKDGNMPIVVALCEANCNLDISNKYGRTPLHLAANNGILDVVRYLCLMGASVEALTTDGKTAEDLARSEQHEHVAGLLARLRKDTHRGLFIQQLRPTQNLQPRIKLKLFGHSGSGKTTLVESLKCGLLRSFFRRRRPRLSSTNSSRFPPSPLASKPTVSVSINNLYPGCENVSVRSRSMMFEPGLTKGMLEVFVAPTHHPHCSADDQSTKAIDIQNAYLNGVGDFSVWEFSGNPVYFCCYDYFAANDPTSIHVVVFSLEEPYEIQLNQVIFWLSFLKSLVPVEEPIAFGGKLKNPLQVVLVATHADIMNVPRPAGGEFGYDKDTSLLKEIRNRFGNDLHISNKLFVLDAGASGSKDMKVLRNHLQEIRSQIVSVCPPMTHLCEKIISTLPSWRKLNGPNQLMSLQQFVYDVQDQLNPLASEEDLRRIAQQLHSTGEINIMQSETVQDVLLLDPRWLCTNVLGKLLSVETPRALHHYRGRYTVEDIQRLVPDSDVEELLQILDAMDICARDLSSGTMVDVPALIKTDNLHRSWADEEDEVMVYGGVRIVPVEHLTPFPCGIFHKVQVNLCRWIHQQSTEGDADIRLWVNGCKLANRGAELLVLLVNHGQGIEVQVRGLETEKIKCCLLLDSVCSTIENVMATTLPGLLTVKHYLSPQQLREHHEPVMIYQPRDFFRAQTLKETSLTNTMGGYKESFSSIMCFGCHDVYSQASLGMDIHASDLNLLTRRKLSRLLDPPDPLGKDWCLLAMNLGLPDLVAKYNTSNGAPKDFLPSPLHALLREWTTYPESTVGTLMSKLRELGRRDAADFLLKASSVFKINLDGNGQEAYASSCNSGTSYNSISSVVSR

[4] = target: T1, Serine/threonine-protein kinase 17B; assay: Inhibition of recombinant GST-tagged DRAK2 (unknown origin) autophosphorylation after 2 hrs by ADP-glo assay
[5] = target: T2, Serine/threonine-protein kinase 17A; assay: Inhibition of human DRAK1
[6] = target: Death-associated protein kinase 2 (Homo sapiens, UniProt Q9UIK4); assay: Inhibition of human DAPK2
Chain of Death-associated protein kinase 2 (Q9UIK4 whole entry): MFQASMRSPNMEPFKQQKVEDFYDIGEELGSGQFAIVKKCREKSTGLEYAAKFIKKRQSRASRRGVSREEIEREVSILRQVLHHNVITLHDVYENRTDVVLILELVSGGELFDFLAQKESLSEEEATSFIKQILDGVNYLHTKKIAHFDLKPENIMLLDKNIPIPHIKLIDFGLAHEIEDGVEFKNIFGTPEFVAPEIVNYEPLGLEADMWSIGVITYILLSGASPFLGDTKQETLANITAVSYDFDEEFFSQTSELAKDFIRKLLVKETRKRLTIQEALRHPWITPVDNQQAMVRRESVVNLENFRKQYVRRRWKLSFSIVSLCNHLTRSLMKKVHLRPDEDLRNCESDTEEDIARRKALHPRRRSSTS

[7] = target: Death-associated protein kinase 3 (Homo sapiens, UniProt O43293); assay: Inhibition of human DAPK3
Chain of Death-associated protein kinase 3 (O43293 whole entry): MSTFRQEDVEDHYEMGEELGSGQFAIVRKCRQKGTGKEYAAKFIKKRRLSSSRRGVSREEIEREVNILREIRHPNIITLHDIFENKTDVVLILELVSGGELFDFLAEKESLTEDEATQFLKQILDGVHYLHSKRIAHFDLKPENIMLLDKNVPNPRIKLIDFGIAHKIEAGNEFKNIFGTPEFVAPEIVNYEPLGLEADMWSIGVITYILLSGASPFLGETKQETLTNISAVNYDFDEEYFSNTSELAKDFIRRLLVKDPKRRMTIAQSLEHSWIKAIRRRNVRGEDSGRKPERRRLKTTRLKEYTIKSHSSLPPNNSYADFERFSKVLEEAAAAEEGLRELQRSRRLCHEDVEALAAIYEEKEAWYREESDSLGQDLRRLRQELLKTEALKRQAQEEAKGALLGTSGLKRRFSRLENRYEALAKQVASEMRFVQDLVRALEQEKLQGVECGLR

[8] = target: Tyrosine-protein kinase Blk (Homo sapiens, UniProt P51451); assay: Inhibition of human BLK
Chain of Tyrosine-protein kinase Blk (P51451 whole entry): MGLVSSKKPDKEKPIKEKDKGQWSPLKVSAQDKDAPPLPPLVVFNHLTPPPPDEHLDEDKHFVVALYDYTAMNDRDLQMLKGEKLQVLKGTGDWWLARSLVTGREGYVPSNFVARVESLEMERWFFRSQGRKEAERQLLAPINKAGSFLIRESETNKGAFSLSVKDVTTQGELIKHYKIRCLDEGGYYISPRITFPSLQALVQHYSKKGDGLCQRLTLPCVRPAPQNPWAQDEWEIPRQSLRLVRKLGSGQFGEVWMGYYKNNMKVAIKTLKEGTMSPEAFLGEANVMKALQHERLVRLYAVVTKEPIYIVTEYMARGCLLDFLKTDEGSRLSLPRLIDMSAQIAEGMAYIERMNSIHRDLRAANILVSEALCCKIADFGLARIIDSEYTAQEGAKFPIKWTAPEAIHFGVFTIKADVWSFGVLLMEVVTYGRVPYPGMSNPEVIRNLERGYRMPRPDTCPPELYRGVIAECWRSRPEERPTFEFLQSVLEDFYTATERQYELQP

Aurora kinase A = target: T3, Aurora kinase A (Homo sapiens, UniProt O14965); assay: Inhibition of human AURORA-A
T3 sequence (O14965 whole entry): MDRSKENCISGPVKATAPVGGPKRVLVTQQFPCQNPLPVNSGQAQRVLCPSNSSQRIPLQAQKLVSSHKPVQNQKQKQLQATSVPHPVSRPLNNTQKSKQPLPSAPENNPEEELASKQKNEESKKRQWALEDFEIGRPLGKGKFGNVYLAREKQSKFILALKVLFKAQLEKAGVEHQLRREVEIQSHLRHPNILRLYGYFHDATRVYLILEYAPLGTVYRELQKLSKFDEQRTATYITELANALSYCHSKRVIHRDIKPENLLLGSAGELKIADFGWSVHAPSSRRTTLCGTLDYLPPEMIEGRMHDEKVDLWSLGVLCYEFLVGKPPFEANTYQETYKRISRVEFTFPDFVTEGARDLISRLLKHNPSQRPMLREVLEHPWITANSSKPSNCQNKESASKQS

[9] = target: Tyrosine-protein kinase BTK (Homo sapiens, UniProt Q06187); assay: Inhibition of human BTK
Chain of Tyrosine-protein kinase BTK (Q06187 whole entry): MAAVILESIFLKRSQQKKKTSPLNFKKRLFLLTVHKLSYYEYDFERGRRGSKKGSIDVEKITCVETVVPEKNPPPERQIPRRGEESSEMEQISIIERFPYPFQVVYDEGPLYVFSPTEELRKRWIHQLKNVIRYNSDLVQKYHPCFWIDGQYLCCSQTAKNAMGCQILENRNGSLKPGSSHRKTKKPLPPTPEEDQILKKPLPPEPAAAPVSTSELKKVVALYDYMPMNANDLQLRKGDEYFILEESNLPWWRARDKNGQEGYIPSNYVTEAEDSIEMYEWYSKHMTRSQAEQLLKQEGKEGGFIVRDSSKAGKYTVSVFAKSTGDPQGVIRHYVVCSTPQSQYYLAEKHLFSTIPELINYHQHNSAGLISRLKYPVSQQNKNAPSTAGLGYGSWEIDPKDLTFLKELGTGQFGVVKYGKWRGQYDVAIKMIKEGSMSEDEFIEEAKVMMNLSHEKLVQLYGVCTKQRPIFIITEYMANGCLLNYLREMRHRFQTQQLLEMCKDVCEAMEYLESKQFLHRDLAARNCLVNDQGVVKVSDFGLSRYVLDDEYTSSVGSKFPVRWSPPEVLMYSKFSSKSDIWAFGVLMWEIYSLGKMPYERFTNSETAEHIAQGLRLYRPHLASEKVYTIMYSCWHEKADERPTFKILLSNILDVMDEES

[10] = target: T4, Inhibitor of nuclear factor kappa-B kinase subunit beta (Homo sapiens, UniProt O14920); assay: Inhibition of human IKKB
T4 sequence (O14920 whole entry): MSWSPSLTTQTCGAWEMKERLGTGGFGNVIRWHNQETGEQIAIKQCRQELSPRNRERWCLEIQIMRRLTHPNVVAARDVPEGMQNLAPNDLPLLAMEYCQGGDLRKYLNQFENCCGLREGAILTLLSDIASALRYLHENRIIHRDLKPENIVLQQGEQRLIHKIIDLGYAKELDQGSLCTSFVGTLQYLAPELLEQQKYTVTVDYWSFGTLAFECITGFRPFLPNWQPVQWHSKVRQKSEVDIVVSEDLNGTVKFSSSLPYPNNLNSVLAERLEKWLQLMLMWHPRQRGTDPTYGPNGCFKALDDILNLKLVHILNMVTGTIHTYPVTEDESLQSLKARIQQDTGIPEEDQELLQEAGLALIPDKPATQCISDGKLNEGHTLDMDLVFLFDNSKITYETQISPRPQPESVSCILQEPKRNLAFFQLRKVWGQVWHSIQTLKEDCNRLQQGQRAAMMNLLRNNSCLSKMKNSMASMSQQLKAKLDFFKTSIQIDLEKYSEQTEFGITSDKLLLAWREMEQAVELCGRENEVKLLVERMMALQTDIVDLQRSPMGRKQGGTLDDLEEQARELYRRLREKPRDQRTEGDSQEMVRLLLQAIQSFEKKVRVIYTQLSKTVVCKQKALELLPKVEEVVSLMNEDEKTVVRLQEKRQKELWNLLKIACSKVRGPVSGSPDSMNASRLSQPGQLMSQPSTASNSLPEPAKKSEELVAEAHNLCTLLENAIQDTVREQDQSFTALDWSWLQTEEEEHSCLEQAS

[11] = target: Glycogen synthase kinase-3 beta (Homo sapiens, UniProt P49841); assay: Inhibition of human GSK3beta
Chain of Glycogen synthase kinase-3 beta (P49841 whole entry): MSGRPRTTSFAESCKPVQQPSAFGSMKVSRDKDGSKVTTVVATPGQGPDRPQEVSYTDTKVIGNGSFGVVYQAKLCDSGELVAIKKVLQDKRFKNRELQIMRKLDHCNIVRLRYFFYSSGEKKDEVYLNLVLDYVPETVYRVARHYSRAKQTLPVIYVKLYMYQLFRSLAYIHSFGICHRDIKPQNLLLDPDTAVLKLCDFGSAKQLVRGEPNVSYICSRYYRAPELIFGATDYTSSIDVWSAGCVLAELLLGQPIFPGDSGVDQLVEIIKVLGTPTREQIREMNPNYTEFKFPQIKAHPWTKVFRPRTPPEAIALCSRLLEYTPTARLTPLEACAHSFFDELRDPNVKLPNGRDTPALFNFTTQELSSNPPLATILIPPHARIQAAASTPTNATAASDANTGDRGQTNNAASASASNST

| IC50 [1] [µM] | Kd [2] [µM] | IC50 [4] [µM] | IC50 [5] [µM] | IC50 [8] [µM] | IC50 (Aurora kinase A) [µM] | IC50 [9] [µM] | IC50 [10] [µM] | IC50 [11] [µM] | Compound | Kd [3] [µM] | IC50 [6] [µM] | IC50 [7] [µM] |
| --- | --- | --- | --- | --- | --- | --- | --- | --- | --- | --- | --- | --- |
| 0.029 | 0.099 | – | – | – | – | – | – | – | Nc1c(-c2n[nH]c(=S)o2)sc2ncc(-c3ccsc3)cc12 | 0.054 | – | – |
| – | – | 0.33 | 1.41 | 5.26 | 9.92 | 5 | 6.23 | 5.01 | CCOc1cc(/C=C2\Oc3ccc(OC)cc3C2=O)ccc1O | – | 22.7 | 18.9 |
